Patent publication US20080207569A1, “Methods for the treatment of liver diseases” (priority 2007, published 2008)

Columns and labels:
[1] = system: Huh7 human hepatoma cell line (the 21-5 cell line); conditions: read-out: IC50 for cytotoxicity (concentration decreasing cell viability by 50%); 72 hr; host cell rRNA levels by TaqMan RT-PCR
Description: Cells were processed 72 hr later when the cells were still sub-confluent.

[2] = system: TNF-α/D-Galactosamine induced liver injury; assay: TNF-α model of liver injury, 24 hour survival; assay type: in vivo, male C57B1/6 mice; conditions: TNF-α/D-Gln IP; average from 3 studies; p=0.03 vs control mice (27±7.3%)
Protocol: (§1) TNF-α is a cytokine that is implicated in inducing liver injury in a variety of acute and chronic liver diseases such as chronic HCV and acute liver failure. An exemplary in vivo model to test pharmacological agents against TNF-α induced injury is the TNF-α/D-Gal model of liver injury in mice. In this model, mice are treated with TNF-α/D-Gal and compound is administered to evaluate its ability to protect against liver damage. The compound is administered either before, at the time of or after the treatment with TNF-α/D-Gal, and followed for a period of approximately 6 hours. Allowing this model to persist past 6 hours is a variation used to determine the improved survival afforded by compound treatment.
(§2) In vivo efficacy of RO-113-0830 was assessed using male C57B1/6 mice (Simonsen Labs) in two well-established models of liver damage. The mice were allowed to acclimate for at least three days.
To determine a benefit on survival, TNF-α model, D-Galactosamine (D-Gln) (800 mg/kg) and TNF-α (20 or 40 μg/kg) were injected IP, and mice were allowed to survive for 24 hours post insult. All morbid mice were euthanized with 125 mg/kg of Nembutal IP. The average 24 hour survival from 3 studies was 27±7.3% and. 55±7.6% (p=0.03) in the TNFα/D-Gln control mice and RO-113-0830-treated mice, respectively.

[3] = system: full-length HCV replicon in Huh7 human hepatoma cell line (21-5); assay: HCV RNA replicon antiviral evaluation assay; assay type: cell-based, hepatitis C virus; conditions: 72 hr; HCV RNA replicon levels by TaqMan RT-PCR; read-out: EC50 (concentration inhibition virus replication by 50%)
Protocol: The assay was conducted as described by Pietschmann, T. et al., supra.
Human interferon alpha-2b was included in each run as a positive control compound. Subconfluent cultures of the ET line were plated out into 96-well plates that were dedicated for the analysis of cell numbers (cytotoxicity) or antiviral activity and the next day drugs were added to the appropriate wells. Cells were processed 72 hr later when the cells were still sub-confluent. HCV RNA replicon levels and the toxic concentration of drug that reduces cell numbers, as indicated by host cell ribosomal RNA (rRNA) levels, were assessed by TaqMan RT-PCR. The EC50 (concentration inhibition virus replication by 50%), IC50 (concentration decreasing cell viability by 50%) and SI50 (selective index: IC50/EC50) values were calculated.

[4] = system: bile duct ligation (BDL) induced liver injury and hepatic fibrosis; assay: Bile duct ligation model of liver fibrosis; assay type: in vivo, C57/BL6 wild-type mice; conditions: 10 mg/kg once a day by gavage
Protocol: The bile duct ligation model is a well characterized model of liver fibrosis. Briefly, C57/BL6 wild-type mice 6 to 8 weeks of age were subjected to bile duct ligation (BDL) for 14 days. Sham-operated wild type mice were used as controls. Either RO 113-0830 or CMC (carboxymethylcellulose) were administered by gavage in a dose of 10 mg/kg body weight once a day. Hepatocyte apoptosis was quantified by the TUNEL assay and immunofluorescence for activated caspases 3/7. Liver injury was assessed by histopathology, and quantification of bile infarcts. Hepatic fibrosis was assessed by Sirius red staining and quantitative morphometry. Real-time polymerase chain reaction (PCR) was used to measure mRNA transcripts for collagen 1 alpha (I) and alpha-smooth muscle actin.

[5] = system: TNF-α/D-Galactosamine induced liver injury; assay: TNF-α model of liver injury (TNFα/D-Gln), plasma ALT activity; assay type: in vivo, male C57B1/6 mice
Protocol: as §1, with “Allowing this model to persist past 6 hours is a variation used to determine the improved survival afforded by compound treatment.” left out
Multiple outcome measures are used for this evaluation. […] The extent of liver damage can be graded by examining liver samples prepared and evaluated microscopically by trained observers. […] In certain embodiment, compounds described herein protect against TNF-α/D-Gal induced liver injury as determined by these parameters. In certain embodiment, compounds described herein protect against Fas induced liver injury as determined by these parameters. […]
In vivo efficacy of RO-113-0830 was assessed using male C57B1/6 mice (Simonsen Labs) in two well-established models of liver damage. […]
In the TNF-α model of liver injury, D-Galactosamine (D-Gln) (800 mg/kg) and TNFα (20 or 40 μg/kg) were injected IP. […] Plasma ALT activity was determined using a kit from Sigma-Aldrich.

Fas-induced liver damage = assay: Fas driven model of liver damage (activating antibody Jo-2), plasma ALT activity; assay type: in vivo, male C57B1/6 mice; conditions: 10 mg/kg PO; six hours after Jo-2 IV; average of 2 studies, p<0.05 in each
Protocol: as §2
In a Fas driven model of liver damage, an activating antibody to Fas (Jo-2) was administered IV. Six hours later, animals were anesthetized with Nembutal (50 mg/kg IP), and blood was taken by cardiac puncture. Plasma ALT activity was determined using a kit from Sigma-Aldrich.

SMILES: O=C(NO)C1(CS(=O)(=O)c2ccc(Oc3ccc(Cl)cc3)cc2)CCOCC1 [RO-113-0830]
- IC50 [1]: ~25 µM
- 24 hour survival [2]: 55±7.6%
- EC50 [3]: 0.07 µM
- reduction of Sirius red staining of hepatic collagen ([4]; 14 days of BDL): 3 fold
- reduction in the number of bile infarcts vs vehicle ([4]; 14 days of BDL, histologic examination): > 70%
- decrease in TUNEL-positive hepatocytes vs vehicle ([4]; 14 days of BDL, p<0.01): 3 fold
- decrease in caspase 3/7-positive hepatocytes vs vehicle ([4]; 14 days of BDL, p<0.01): 5 fold
- reduction of hepatic mRNA for alpha-smooth muscle actin vs vehicle ([4]; 14 days of BDL, real-time PCR): > 60%
- reduction of hepatic mRNA for collagen I vs vehicle ([4]; 14 days of BDL, real-time PCR): > 60%
- overall animal survival following 14 days of BDL ([4]; p<0.05): significantly enhanced
- plasma ALT activity, effect in words ([5]; 0.001-30 mg/kg PO 30 minutes before insult, six hours): dose-dependently decreased plasma ALT activity
- ED50 for decrease of plasma ALT activity ([5]; PO by gavage 30 minutes before TNFα/D-Gln insult, ALT six hours later, average from 4 studies): 0.26 ± 0.08 mg/kg
- reduction of Fas-induced elevation in plasma ALT activity (Fas-induced liver damage): 50%
